First: CC(C)C[C@H](NC(=O)NCc1ccccc1)C(=O)N[C@@H](Cc1ccccc1)C(=O)CSCc1ccco1
Second: CC(C)[C@H]1COC(=O)N1C(=O)[C@@H](CC(=O)N(C)Cc1ccccc1)Cc1ccccc1
The melting point of the first is higher: 95 to 97 °C for the first, 60 to 62 °C for the second.

First: CNS(=O)(=O)c1ccc(NC=C2C(=O)Nc3ccc4ncsc4c32)cc1CCOCCO
Second: Cc1ccc(Cc2cnc(NCCCCNc3ccc(Cl)cn3)[nH]c2=O)cn1
The melting point of the first is lower: 165 °C for the first, 214 to 215 °C for the second.

Compared with `Cc1nc(Nc2nc3cccc(C)c3[nH]2)nc(O)c1CC(=O)O`, `COCC(=O)N(c1c(C)cccc1C)C(CCO)C(=O)O` (stereo not given) is lower in melting point: over 300 °C for the first, 150 to 152 °C for the second.

First: COC(=O)Cc1ccccc1S(=O)(=O)NC(=O)Nc1nc(Cl)cc(Cl)n1
Second: CCc1nc2sc(S(N)(=O)=O)cc2c(=O)n1-c1ccccc1Cl
The melting point of the first is lower: 115 to 118 °C for the first, 253 °C for the second.

Compared with `O=Cc1c(O)cccc1OCCCC(=O)O`, `CCCCCC(CC(=O)O)c1cc(C=O)c(OC)cc1OC` (stereo not given) is lower in melting point: 151 to 153 °C for the first, 110 to 112 °C for the second.

Compared with `CCCCCCCc1cn(CC(O)c2ccccc2)c(=N)s1` (stereo not given), `CCCCCCCCNC(=O)ON=C(Cc1ccccc1)C1=CC(=O)C(C)(C)O1` is lower in melting point: 124 °C for the first, 67 to 68 °C for the second.

First: COc1cc(CN(C)CCCOc2ccc(NC(=O)c3cccc4c(=O)c5cccc(OC)c5[nH]c34)cc2)cc(OC)c1OC
Second: COC(=O)C1=CC(C(=O)c2ccc(OCc3ccccc3)c(C)c2O)=CN2CCc3c([nH]c4ccccc34)C12C(=O)OC (stereo not given)
The melting point of the first is lower: 186 °C for the first, 216 °C for the second.

Compared with `C[C@@H](n1cccn1)[C@](O)(Cn1ccnc1)c1ccc(F)cc1F`, `Cc1cc(C(F)(F)F)n2nc(SCc3ccccc3)nc2n1` is lower in melting point: 142 to 143 °C for the first, 83.5 to 84.5 °C for the second.

Compared with `O=C1CCC(N2Cc3c(OCc4cc(CN5CCOCC5)no4)cccc3C2=O)C(=O)N1` (stereo not given), `Cc1cc(C)cc(NC(=O)NCc2ccc3c(c2)CN(C2CCC(=O)NC2=O)C3=O)c1` (stereo not given) is higher in melting point: 228 to 230 °C for the first, 289 to 291 °C for the second.

First: CS(=O)(=O)c1ccc(-c2cnn(-c3ccc(F)c(F)c3)c(=O)c2Oc2ccc(Br)cc2)cc1
Second: Cn1nc(-c2ccc(F)cc2)c(-c2ccncc2)c1CCCc1ccc(N)cc1
The melting point of the first is higher: 196 to 199 °C for the first, 80.5 to 81.1 °C for the second.

First: Oc1cc2c(cc1F)[C@H](O)[C@H](N1CCC(O)(c3ccc(F)cc3)CC1)CO2 (relative stereo)
Second: COC1(c2cc(F)cc(OCc3ccc(C(=O)O)cc3)c2)CCOCC1
The melting point of the first is lower: 160 to 161 °C for the first, 184 to 186 °C for the second.

Compared with `O=C(Nc1ccc(C(=O)N2CCCCc3sc(Cl)cc32)cc1)c1ccc(Cl)cc1Cl`, `CC(C)(C)c1ccc(NC(=O)c2cccc(C(OC(=O)Nc3ccc4[nH]ncc4c3)[C@@H]3CCCCN3)c2)cc1` (stereo not given in full) is higher in melting point: 187 to 189 °C for the first, 214 °C for the second.

First: CC(C)c1nc(CCOC2=CCCc3ccccc32)n(C)c1Sc1cc(Cl)cc(Cl)c1
Second: CCC(CC)c1ccc(OC)c2nc(Oc3c(C)cc(Cl)cc3Cl)n(C)c12
The melting point of the first is lower: 99 to 102 °C for the first, 130 to 131 °C for the second.

First: N#CC(C(=O)c1ccc(NS(=O)(=O)C(F)(F)F)cc1)=C1CCCCN1
Second: CCOC(=O)C(C#N)=C1CCN(c2ccc(N3C[C@H](CNC(C)=O)OC3=O)cc2F)CC1
The melting point of the first is higher: 197 °C for the first, 165 to 169 °C for the second.

Compared with `CCCc1nc2c(N)nc3ccccc3c2n1CCCCCC(=O)OCC`, `CCCc1nc2c(N)nc3cc(C)ccc3c2s1` is higher in melting point: 112 to 113 °C for the first, 186 to 187 °C for the second.

Compared with `c1ccc2c(c1)NCc1c(-c3noc(C4CC4)n3)ncn1-2`, `Cn1c(=O)c(=O)[nH]c2c3ccccc3ccc21` is higher in melting point: 243 to 245 °C for the first, 333 °C for the second.

Compared with `CC1(C)OCCn2c1nc(C(=O)NCc1ccc(F)cc1P(=O)(O)OCc1ccccc1)c(OCc1ccccc1)c2=O`, `O=C(O)c1ccc(OCc2ccccc2)c(OCc2ccccc2)c1` is higher in melting point: 142 °C for the first, 184 to 185 °C for the second.

First: Cc1cc(CN2N=C(C(F)(F)C(F)(F)F)NC2(O)c2ccc(Cl)cc2)ccc1[N+](=O)[O-] (stereo not given)
Second: CCCNC(=O)n1nc(Oc2c(Cl)cc(C(F)(F)F)cc2[N+](=O)[O-])cc1C
The melting point of the first is lower: 90 to 92 °C for the first, 111 to 113 °C for the second.

Compared with `O=c1[nH]c2ccccc2n1CCOC1CCCCO1` (stereo not given), `CCOc1ccc2[nH]c(=O)n(CCN3CCOCC3)c2c1` is lower in melting point: 115 °C for the first, 107 °C for the second.

Compared with `CCCCCCCCCCCCCCCC(O)C(N)CO` (stereo not given), `CCCCCCCCCCCCCCCCCCOC(=O)COc1ccc(C2C(=O)Oc3c(C)cc(C)cc32)cc1` (stereo not given) is lower in melting point: 81 °C for the first, 57 to 59 °C for the second.

First: CCCCc1nc(=O)c2cc(C3=NN(C(c4ccccc4)(c4ccccc4)c4ccccc4)[C@H]4C(=O)N(C)C(=O)[C@@H]34)ccc2[nH]1 (relative stereo)
Second: Cc1cc(-n2ccc(OCc3ccccc3)cc2=O)sc1C(=O)NCc1ccccc1
The melting point of the first is higher: 182 °C for the first, 153 to 154 °C for the second.

First: CC(C)NCC1(O)COc2ccc([N+](=O)[O-])cc2OC1 (stereo not given)
Second: CCOC(=O)C1CNc2ccc([N+](=O)[O-])cc2O1 (stereo not given)
The melting point of the first is lower: 97.5 to 99 °C for the first, 130 to 132 °C for the second.

First: CC(C)(C)C(=O)c1c[nH]c2ncc(-c3cccc(N4CC5(COC5)C4)c3)nc12
Second: COc1cc2c(c3c1OC(C)(C)C3)C(c1cccc(N3CCNS3(=O)=O)c1)=NC(C)(C)C2
The melting point of the first is higher: 260 to 262 °C for the first, 145 to 147 °C for the second.

First: CN(C)CC(=O)N1CCN(Cc2ccc3c(c2)Cc2c(-c4ccsc4)n[nH]c2-3)CC1
Second: CN1CCN(CC/C=C/c2ccc3ncc(C#N)c(Nc4ccc(Cl)cc4Cl)c3c2)CC1
The melting point of the first is higher: 190 to 192 °C for the first, 97 to 98 °C for the second.

Compared with `CCc1nc2ccn(-c3ccccc3)n2c(=O)c1C(=O)O`, `CC(C)=CCn1c(=O)c(C2=Nc3ccccc3S(=O)(=O)N2)c(O)c2ccccc21` is higher in melting point: 119 to 120 °C for the first, 249 to 251 °C for the second.

First: CCCCCS(=O)(=O)NC(=O)/C=C/c1ccc(OCCOC)cc1Oc1cc(C(F)(F)F)ccc1[N+](=O)[O-]
Second: COC(=O)C(C)(C)n1nnc2ccc(Oc3cc(F)c(C(F)(F)F)c(Cl)c3)cc21
The melting point of the first is higher: 164 to 165 °C for the first, 76.8 to 80 °C for the second.

First: CC(CC(=O)c1ccc(C(N)=S)cc1)C(=O)N1CCC(OCC(=O)OC(C)(C)C)CC1 (racemic)
Second: CC(C)(C)OC(=O)CN1CCCNc2c1c(=O)c2=O
The melting point of the first is lower: 152 to 155 °C for the first, 167 to 168 °C for the second.

First: CCC(Oc1ccccc1Br)C(=O)OC1CC(O)C=C2C=CC(C)C(CCC3CC(O)CC(=O)O3)C21 (mixture of isomers)
Second: CC(=O)OC1CSC(Oc2c(C)ccnc2-c2cccnc2)C(OC(C)=O)C1OC(C)=O (stereo not given)
The melting point of the first is higher: 160 to 162 °C for the first, 143 °C for the second.

`CC(=O)C(CCCCCCc1ccc(O)cc1)C(C)=O` and `O=C(CN1C(=O)CC1SCc1ccccc1)NCCCCCCc1ccccc1` (stereo not given) cannot be ordered by melting point: 68 to 69 °C for the first, 65 to 70 °C for the second.

Compared with `CC(C)(C)c1cc(CC2CCCCC2=O)cc(C(C)(C)C)c1O` (stereo not given), `CCc1nc2c(O)cc(C(=O)N(C)C)cc2n1C` is higher in melting point: 79 °C for the first, 193 to 199 °C for the second.

First: NC(=O)c1nccn1C1Cc2c(Cl)cccc2C1=O (stereo not given)
Second: NC(=O)c1ncn2c1[C@@H]1CCCN1C(=O)c1sccc1-2
The melting point of the first is lower: 90 °C for the first, 222 to 223 °C for the second.

Compared with `CC(=O)N1CC2(CCN(C(=O)Nc3nnc(-c4ccccc4)s3)CC2)c2ccccc21`, `CC(C)Cn1c(CN)c(-c2ccccc2)c2cc(SCC(N)=O)ccc2c1=O` is lower in melting point: 260 °C for the first, 218 to 220 °C for the second.

First: O=C1C2CCCC1CN(Cc1ccccc1)C2
Second: O=c1[nH]c(-c2ccccc2)cn1CCO
The melting point of the first is lower: 48 to 50.5 °C for the first, 203 to 205 °C for the second.

First: Cc1cc(Oc2nc(-c3ccccc3)ns2)c(C)cc1N=CN(C)C
Second: COc1cc(OC)nc(Oc2ccc3ccccc3c2C=O)n1
The melting point of the first is lower: 100 to 105 °C for the first, 123 to 125 °C for the second.

Compared with `Cn1ncnc1COc1nn2cnnc2cc1-c1ccsc1`, `CCCn1nc(-c2ccncc2)nc1-c1ccncc1` is lower in melting point: 220 to 222 °C for the first, 88 to 89 °C for the second.

First: CC(=O)OC1Cc2ccc(N)cc2C1 (stereo not given)
Second: CC1(C)Oc2ccc(C#N)cc2[C@@H](N2CCCC2)[C@@H]1O (relative stereo)
The melting point of the first is higher: 237 to 239 °C for the first, 173 to 174 °C for the second.

`COc1nc2cccccc-2n1` and `CC(C)(C)NNC(=O)c1ccccc1` cannot be ordered by melting point: 94 °C for the first, 94 to 95 °C for the second.

Compared with `CC(C)(Cl)Cn1ncc(Cl)c(Cl)c1=O`, `O=C1Nc2cc(Cl)c(Cl)cc2C1=O` is higher in melting point: 61 to 66 °C for the first, 271 to 272 °C for the second.

First: NS(=O)(=O)c1cccc(-c2cccc(-c3nc(-c4ccc(C(F)(F)F)cc4F)cc(C(F)(F)F)n3)c2)c1
Second: COCn1ccnc1C(O)(c1ccccc1)c1ccc(C(F)(F)F)cc1 (stereo not given)
The melting point of the first is higher: 224 °C for the first, 158 to 159 °C for the second.

First: CCOC(=O)c1ccc(/C=C(\C)c2cc(OC)c3c(c2)C(C)(C)CC3(C)C)cc1
Second: COC(=O)c1ccc(-c2nnc(-c3ccc(C(C)(C)C)cc3)o2)cc1
The melting point of the first is lower: 72 to 73 °C for the first, 210 to 211 °C for the second.

First: OC(CCc1cccc(Br)c1)c1cnc2sc3c(n12)CCCCC3 (stereo not given)
Second: COC(=O)CN1CCCC(Nc2ncc3ncnc(Nc4cccc(Br)c4)c3n2)C1 (stereo not given)
The melting point of the first is higher: 137 to 141 °C for the first, 113 °C for the second.

First: CC(C)N(C(C)C)S(=O)(=O)N[C@@H](Cc1ccc(Nc2nccc3cnccc23)cc1)C(=O)O
Second: COc1ccc(CCNC(=O)C(=O)NCc2ccncc2)cc1OC1CCCC1
The melting point of the first is higher: 168 °C for the first, 129 to 131 °C for the second.

First: N#CCC(=O)c1cc(F)c(Cl)cc1Cl
Second: N#C/C=C\c1ccccc1C(=O)Cl
The melting point of the first is higher: 98 to 99 °C for the first, 72 to 74 °C for the second.

First: Cn1c(=O)[nH]c2nccnc2c1=O
Second: COc1n[nH]c(=O)n1C
The melting point of the first is higher: 342 to 343 °C for the first, 146 °C for the second.

First: NS(=O)(=O)NC[C@H]1COc2cc(Cl)ccc2O1
Second: O=C(O)CCNc1c2ccc(Cl)cc2nc2c(=O)[nH][nH]c(=O)c12
The melting point of the first is lower: 99 to 100 °C for the first, 356 to 359 °C for the second.

Compared with `CCCC(c1ccc(C)cc1)n1c(C(=O)OC)cnc1S` (stereo not given), `Cc1nc(-c2ccc(OC(F)(F)F)cc2)sc1C(=O)O` is lower in melting point: 209 to 211 °C for the first, 179 to 181 °C for the second.

First: CCOP(=O)(COCCOn1cnc2c(N)nc(N)nc21)OCC
Second: CCOC(=O)C=Cc1c(C)cc(OC)c(C)c1C
The melting point of the first is higher: 139 to 141 °C for the first, 42 to 44 °C for the second.

First: Cc1cc(C)c(C=C(C(=O)O)c2csc(N)n2)c(C)c1
Second: O=Cc1c2ccsc2cc2c1ccc1ccccc12
The melting point of the first is higher: over 200 °C for the first, 178 to 180 °C for the second.

First: C#CCN1CCN(C(C)=O)CC1
Second: CCCCCCCCCn1ccc(C#N)cc1=O
The melting point of the first is higher: 63 to 65 °C for the first, 46 to 48 °C for the second.

Compared with `CCCCS(=O)Cc1ccc(CCl)cc1` (stereo not given), `COc1ccc(C(O)CN(Cc2ccccc2)Cc2ccccc2)cc1C(N)=O` (stereo not given) is higher in melting point: 112 to 113 °C for the first, 120 to 123 °C for the second.

Reference: a melting point compilation (Tetko et al.; mined from patent text by program, amines drawn as free bases though some values may be those of a salt)
